Like-named read-outs stand apart in the source and are kept apart here.
Key:
IR = IR (Homo sapiens, UniProt P06213); conditions: cited from earlier work
Flt3^D835Y = Flt3^D835Y (Homo sapiens, UniProt P36888, D835Y); conditions: cited from earlier work
Virttu cell line panel = assay: cells; assay type: cell-based; conditions: Homo sapiens
Virttu cell panel = assay: combination with HSV1716, DCP cell death, Chou-Talalay analysis, cell panel; assay type: cell-based, human; conditions: for number of cell lines tested in which antagonism was detected: drug + HSV1716 moi 0.5 and 0.05, cell death by DCP after 72 hours
HuH7 = assay type: cell-based, human
SKOV3 [1] = assay type: cell-based, human
U87 = assay type: cell-based, human
SPC111 = assay: combination with HSV1716, Chou-Talalay, SPC111; assay type: cell-based, human; conditions: for synergy/antagonism with HSV1716 on cell death (Chou-Talalay): SPC111, HSV1716 moi 0.5 and 0.05, 72 hours
non-sensitive cells = conditions: read-out: IC50 for non-sensitive cells, previously reported; cited from earlier work
Hep3B = assay type: cell-based, human
UVW = assay type: cell-based, human
A431 = assay type: cell-based, human
[2] = test system: human gastric carcinoma xenograft; assay: patient-derived human gastric carcinoma xenograft model; parameters: species or system mice; conditions: mouse, in vivo
Description: HSV1716 (Seprehvir) was used in a personalised oncology study. Patient-derived tumour samples were obtained from a gastric carcinoma. There have been no previous in vitro or in vivo pre-clinical studies with Seprehvir in human gastric carcinoma cells/xenografts. Seprehvir was stored at −70° C., and multiple vials were provided to avoid repeated freeze/thawing.
Two groups of 3 mice with gastric carcinoma implants were treated with 2×10^6 pfu Seprehvir by either intratumoural (IT) or intravenous (IV) routes of administration. Control mice (n=3) received no treatment and in these mice the implants grew rapidly and all were sacrificed within 18 days (FIG. 61). For IV injection, Seprehvir was administered on days 0, 3, 10 and 18, at which point the tumors were too large and the mice were sacrificed.
For IT injection of Seprehvir, 2×10^6 pfu was administered on days 0, 3, 10, 18, 21 and 25.
. Control mice (n=3) received no treatment and in these mice the implants grew rapidly and all were sacrificed within 18 days (FIG. 62). […]. A follow-on study with HSV1716 administering more frequent by IV dosing at the higher concentration of 10^7 pfu was performed using the same human gastric carcinoma xenograft model. […].
Groups of 3 mice received IV injection of HSV1716 at 1×10^7 pfu on days 1, 3, 5, 8, 10, 12, 15, 17 and 19. […]

A431 cells [3] = assay: cells; conditions: Homo sapiens, A-431, 72 h, read-out: IC50 (DCP leakage)
A431 cells [4] = conditions: read-out: IC50 in A431 cells, previously reported; cited from earlier work
[5] = test system: EGFR- or ErbB2-overexpressing cells; conditions: read-out: IC50, growth of EGFR- or ErbB2-overexpressing cells; cited from earlier work
[6] = test system: cells expressing low levels of EGFR or ErbB2; conditions: read-out: IC50, cells expressing low levels of EGFR or ErbB2; cited from earlier work
UVW cells = assay: DCP cell death assay, drug alone, UVW; assay type: cell-based; conditions: Homo sapiens, 72 hrs, read-out: IC50 (DCP leakage)
Ovcar3 [7] = assay: DCP cell death assay, drug alone, Ovcar3; assay type: cell-based; conditions: Homo sapiens, OVCAR-3; Ovcar3, 72 hrs; read-out: IC50 (DCP leakage)
SKOV3 [8] = assay: DCP cell death assay, drug alone, SKOV3; assay type: cell-based; conditions: Homo sapiens, SK-OV-3; SKOV3, 72 hrs; read-out: IC50 (DCP leakage)
SPC-111 = assay: DCP cell death assay, drug alone, SPC-111; assay type: cell-based; conditions: Homo sapiens; SPC-111, 72 hrs; read-out: IC50 (DCP leakage)
HSV1716gfp = assay: GFP expression during infection with HSV1716gfp (drug toxicity to virus); assay type: cell-based, herpes simplex virus
CP70 = assay type: cell-based, human
One58 = assay type: cell-based, human
RCC cell lines = conditions: read-out: IC50 in RCC cell lines, reported; cited from earlier work
[9] = test system: breast carcinoma and melanoma cell lines; conditions: read-out: IC50 in breast carcinoma and melanoma cell lines, reported; cited from earlier work
VEGFR3 = VEGFR3 (Homo sapiens, UniProt P35916); conditions: cited from earlier work
HepG2-luc = assay type: cell-based, human
Ovcar3 [10] = assay type: cell-based, human
HCC cell lines = assay type: cell-based, human
HCC = conditions: monotherapy of HCC; cited from earlier work

Sequence of VEGFR3 (P35916 25-1363): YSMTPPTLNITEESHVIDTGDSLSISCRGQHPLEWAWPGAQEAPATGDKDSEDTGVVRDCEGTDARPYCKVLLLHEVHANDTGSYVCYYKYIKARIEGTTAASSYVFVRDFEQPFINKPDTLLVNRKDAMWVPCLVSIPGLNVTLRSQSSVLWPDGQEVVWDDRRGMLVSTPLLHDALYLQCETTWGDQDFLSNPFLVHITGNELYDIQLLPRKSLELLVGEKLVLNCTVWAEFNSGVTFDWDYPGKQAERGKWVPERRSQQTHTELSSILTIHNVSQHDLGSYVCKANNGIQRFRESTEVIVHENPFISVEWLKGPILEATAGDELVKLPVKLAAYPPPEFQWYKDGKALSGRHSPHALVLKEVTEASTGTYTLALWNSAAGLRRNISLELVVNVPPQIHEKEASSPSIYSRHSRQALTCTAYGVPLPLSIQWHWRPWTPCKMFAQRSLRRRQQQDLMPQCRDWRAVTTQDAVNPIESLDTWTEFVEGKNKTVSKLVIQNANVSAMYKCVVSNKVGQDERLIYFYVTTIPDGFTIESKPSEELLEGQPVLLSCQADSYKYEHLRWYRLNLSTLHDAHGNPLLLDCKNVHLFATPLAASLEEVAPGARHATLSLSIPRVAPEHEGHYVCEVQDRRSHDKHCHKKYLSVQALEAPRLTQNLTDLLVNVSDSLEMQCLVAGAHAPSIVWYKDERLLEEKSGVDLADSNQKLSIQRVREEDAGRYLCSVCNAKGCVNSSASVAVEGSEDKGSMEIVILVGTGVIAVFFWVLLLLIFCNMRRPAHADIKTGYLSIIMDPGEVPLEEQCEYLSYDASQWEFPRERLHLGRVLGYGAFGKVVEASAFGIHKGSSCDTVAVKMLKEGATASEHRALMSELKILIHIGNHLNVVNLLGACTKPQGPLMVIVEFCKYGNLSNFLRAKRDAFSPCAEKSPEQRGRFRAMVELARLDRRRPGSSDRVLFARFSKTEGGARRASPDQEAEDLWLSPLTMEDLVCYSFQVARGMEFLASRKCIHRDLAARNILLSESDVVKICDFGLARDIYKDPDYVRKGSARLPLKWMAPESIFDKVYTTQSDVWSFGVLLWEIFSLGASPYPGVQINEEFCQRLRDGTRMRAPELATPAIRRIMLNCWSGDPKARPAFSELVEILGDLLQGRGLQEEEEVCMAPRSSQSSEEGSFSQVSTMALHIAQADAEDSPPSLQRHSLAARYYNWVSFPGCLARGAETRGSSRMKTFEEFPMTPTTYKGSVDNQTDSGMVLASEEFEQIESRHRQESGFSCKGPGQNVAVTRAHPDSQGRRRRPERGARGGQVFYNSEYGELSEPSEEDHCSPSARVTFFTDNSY
Sequence of IR (P06213 28-1382): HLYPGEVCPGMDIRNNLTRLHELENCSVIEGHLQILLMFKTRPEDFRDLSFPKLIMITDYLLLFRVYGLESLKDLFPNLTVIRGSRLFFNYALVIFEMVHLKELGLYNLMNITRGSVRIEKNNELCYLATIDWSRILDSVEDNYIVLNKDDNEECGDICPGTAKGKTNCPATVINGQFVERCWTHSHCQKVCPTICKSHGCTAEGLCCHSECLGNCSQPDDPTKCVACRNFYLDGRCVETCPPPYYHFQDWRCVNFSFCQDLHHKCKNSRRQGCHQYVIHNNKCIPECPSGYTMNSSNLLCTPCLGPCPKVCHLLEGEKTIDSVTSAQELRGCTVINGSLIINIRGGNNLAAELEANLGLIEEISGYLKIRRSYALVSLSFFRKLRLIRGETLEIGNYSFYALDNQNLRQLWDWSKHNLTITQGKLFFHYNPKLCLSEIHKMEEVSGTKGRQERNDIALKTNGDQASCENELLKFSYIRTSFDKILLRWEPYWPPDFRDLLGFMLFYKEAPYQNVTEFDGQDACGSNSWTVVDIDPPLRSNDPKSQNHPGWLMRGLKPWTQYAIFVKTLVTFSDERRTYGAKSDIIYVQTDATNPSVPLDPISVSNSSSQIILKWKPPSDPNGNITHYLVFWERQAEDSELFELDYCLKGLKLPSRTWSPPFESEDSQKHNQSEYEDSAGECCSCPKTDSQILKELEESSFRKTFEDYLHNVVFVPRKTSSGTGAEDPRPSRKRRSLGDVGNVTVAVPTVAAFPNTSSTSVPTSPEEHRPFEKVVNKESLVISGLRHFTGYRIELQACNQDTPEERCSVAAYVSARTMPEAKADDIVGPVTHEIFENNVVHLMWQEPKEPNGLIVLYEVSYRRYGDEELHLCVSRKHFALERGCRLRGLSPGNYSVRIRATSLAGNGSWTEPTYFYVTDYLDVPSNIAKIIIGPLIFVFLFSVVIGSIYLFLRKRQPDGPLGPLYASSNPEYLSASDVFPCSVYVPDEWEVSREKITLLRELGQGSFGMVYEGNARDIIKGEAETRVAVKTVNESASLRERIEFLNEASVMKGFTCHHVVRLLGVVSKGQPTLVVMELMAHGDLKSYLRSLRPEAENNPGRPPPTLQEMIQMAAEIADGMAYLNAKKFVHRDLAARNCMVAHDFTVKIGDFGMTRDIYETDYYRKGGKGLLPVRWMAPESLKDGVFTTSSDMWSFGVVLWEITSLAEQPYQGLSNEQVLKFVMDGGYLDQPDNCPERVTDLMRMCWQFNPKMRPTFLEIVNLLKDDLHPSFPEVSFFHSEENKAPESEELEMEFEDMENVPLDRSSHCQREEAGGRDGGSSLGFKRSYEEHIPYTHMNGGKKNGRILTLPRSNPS

## CC(C)(C)c1cc(C=C(C#N)C#N)cc(Br)c1O [AG-1024, 2-(3-bromo-5-tert-butyl-4-hydroxybenzylidene)malononitrile]
IR
  IC50: 100 nM

## S=C(NCc1ccc2c(c1)OCO2)N1CCN(c2ncnc3c2oc2ccccc23)CC1 [Amuvatinib, N-(benzo[d][1,3]dioxol-5-ylmethyl)-4-(benzofuro[3,2-d]pyrimidin-4-yl)piperazine-1-carbothioamide]
Flt3^D835Y
  IC50: 81 nM

## C#Cc1cccc(Nc2ncnc3cc(OCCOC)c(OCCOC)cc23)c1 [Erlotinib, N-(3-ethynylphenyl)-6,7-bis(2-methoxyethoxy)quinazolin-4-amine]
Virttu cell line panel; A-431, all other cell lines (other than A431), 72 hours, read-out: IC50 (DCP leakage), range
  IC50: 1000 to 25000 nM
Virttu cell panel
  overall synergy/antagonism with HSV1716 on cell death: mostly antagonistic
  number of cell lines tested in which antagonism was detected: 9 out of 10
HuH7
  number of synergistic combinations out of 8: 1/8
  synergy/antagonism with HSV1716 on cell death (Chou-Talalay): limited synergy
SKOV3 [1]
  number of synergistic combinations out of 8: 1/8
  synergy/antagonism with HSV1716 on cell death (Chou-Talalay): limited synergy
U87
  synergy/antagonism with HSV1716 on cell death (Chou-Talalay): synergistic
SPC111
  synergy/antagonism with HSV1716 on cell death (Chou-Talalay): limited synergy
SPC111; SPC111, synergy at moi 0.05
  number of synergistic combinations out of 8: 1/8
non-sensitive cells
  IC50: > 10000 nM

## CS(=O)(=O)CCNCc1ccc(-c2ccc3ncnc(Nc4ccc(OCc5cccc(F)c5)c(Cl)c4)c3c2)o1 [Lapatinib, N-[3-chloro-4-[(3-fluorophenyl)methoxy]phenyl]-6-[5-[(2-methylsulfonylethylamino)methyl]-2-furyl]quinazolin-4-amine]
Virttu cell line panel; A-431, 72 h, read-out: IC50 (DCP leakage), range
  IC50: 4000 to 30000 nM
Virttu cell panel
  number of cell lines tested in which antagonism was detected: 8 of the 10
Hep3B
  synergy/antagonism with HSV1716 on cell death (Chou-Talalay): strongly synergistic
U87
  number of synergistic combinations out of 8: 2/8
  synergy/antagonism with HSV1716 on cell death (Chou-Talalay): some synergy
UVW
  synergy/antagonism with HSV1716 on cell death (Chou-Talalay): strongly synergistic
A431
  number of synergistic combinations out of 8: 1/8
  synergy/antagonism with HSV1716 on cell death (Chou-Talalay): some synergy
[2]
  tumour growth inhibition: some tumour growth inhibition until day 6
A431 cells [3]
  IC50: 150 nM
A431 cells [4]
  IC50: 160 nM
[5]
  IC50: 90 to 210 nM
[6]
  IC50: 3000 to 12000 nM

## Cc1ccc(Nc2nccc(N(C)c3ccc4c(C)n(C)nc4c3)n2)cc1S(N)(=O)=O [Pazopanib, 5-[[4-[(2,3-Dimethyl-2H-indazol-6-yl)methylamino]-2-pyrimidinyl]amino]-2-methylbenzolsulfonamide]
Virttu cell line panel; Hep3B, HuH7, HepG2-luc, CP70, U87 and One58, 72 hrs, read-out: IC50 (DCP leakage), range
  IC50: 3000 to 18000 nM
UVW cells
  IC50: 300 nM
Ovcar3 [7]
  IC50: 40000 nM
SKOV3 [8]
  IC50: 40000 nM
SPC-111
  IC50: 40000 nM
HSV1716gfp; CP70, moi 0.5 and 0.05, 72 hrs
  effect on GFP expression during HSV1716gfp infection: stimulated GFP expression
HSV1716gfp; HepG2-luc, both moi (0.5 and 0.05), 72 hrs
  effect on GFP expression during HSV1716gfp infection: little effect on GFP expression
HSV1716gfp; HuH7, moi 0.05, 72 hrs
  effect on GFP expression during HSV1716gfp infection: more potent inhibitory effect
HSV1716gfp; HuH7, moi 0.5, 72 hrs
  effect on GFP expression during HSV1716gfp infection: inhibited GFP expression
HSV1716gfp; One58, moi 0.05, 72 hrs
  effect on GFP expression during HSV1716gfp infection: more potent inhibitory effect
HSV1716gfp; One58, moi 0.5, 72 hrs
  effect on GFP expression during HSV1716gfp infection: inhibited GFP expression
HSV1716gfp; Ovcar3, moi 0.05, 72 hrs
  effect on GFP expression during HSV1716gfp infection: more potent inhibitory effect
HSV1716gfp; Ovcar3, moi 0.5, 72 hrs
  effect on GFP expression during HSV1716gfp infection: inhibited GFP expression
HSV1716gfp; SKOV3, moi 0.05, 72 hrs
  effect on GFP expression during HSV1716gfp infection: no inhibitory effects
HSV1716gfp; SKOV3, moi 0.5, 72 hrs
  effect on GFP expression during HSV1716gfp infection: inhibited GFP expression
HSV1716gfp; UVW, moi 0.05, 72 hrs
  effect on GFP expression during HSV1716gfp infection: no inhibitory effects
HSV1716gfp; UVW, moi 0.5, 72 hrs
  effect on GFP expression during HSV1716gfp infection: inhibited GFP expression
Virttu cell panel
  number of cell lines tested with clear synergy signals / synergism with HSV1716: 7/9
HuH7
  synergy/antagonism with HSV1716 on cell death (Chou-Talalay): limited synergy
CP70
  synergy/antagonism with HSV1716 on cell death (Chou-Talalay): synergistic
One58
  synergy/antagonism with HSV1716 on cell death (Chou-Talalay): synergistic
SPC111
  synergy/antagonism with HSV1716 on cell death (Chou-Talalay): limited synergy
RCC cell lines
  IC50: 30000 to 60000 nM
[9]
  IC50: 1000 to 10000 nM

## CCn1c(N)c(C(=O)NC)c(=O)c2ccc(C#C[C@@](C)(O)COC)nc21 [SAR131675, (R)-2-amino-1-ethyl-7-(3-hydroxy-4-methoxy-3-methylbut-1-ynyl)-N-methyl-4-oxo-1,4-dihydro-1,8-naphthyridine-3-carboxamide]
VEGFR3
  IC50: 20 nM

## CNC(=O)c1cc(Oc2ccc(NC(=O)Nc3ccc(Cl)c(C(F)(F)F)c3)cc2)ccn1 [Sorafenib, 4-[4-[[4-chloro-3-(trifluoromethyl)phenyl]carbamoylamino]phenoxy]-N-methyl-pyridine-2-carboxamide]
Virttu cell line panel; most/all cell lines of panel, 72 hrs, read-out: IC50 (DCP leakage), range over cell lines
  IC50: 1000 to 10000 nM
UVW cells
  IC50: 100 nM
HSV1716gfp; CP70, moi 0.05, 72 hrs
  effect on GFP expression during HSV1716gfp infection: more marked inhibitory effect
HSV1716gfp; Hep3B, moi 0.05, 72 hrs
  effect on GFP expression during HSV1716gfp infection: more marked inhibitory effect
HSV1716gfp; HuH7, moi 0.05, 72 hrs
  effect on GFP expression during HSV1716gfp infection: small inhibitory effect at the 2.5 μM Sorafenib concentration
HSV1716gfp; One58, moi 0.05, 72 hrs
  effect on GFP expression during HSV1716gfp infection: more marked inhibitory effect
HSV1716gfp; Ovcar3, moi 0.05, 72 hrs
  effect on GFP expression during HSV1716gfp infection: more marked inhibitory effect
HSV1716gfp; SKOV3, moi 0.05, 72 hrs
  effect on GFP expression during HSV1716gfp infection: no effect on GFP expression
HSV1716gfp; SPC111, moi 0.05, 72 hrs
  effect on GFP expression during HSV1716gfp infection: more marked inhibitory effect
HSV1716gfp; U87, moi 0.05, 72 hrs
  effect on GFP expression during HSV1716gfp infection: small inhibitory effect at the 2.5 μM Sorafenib concentration
HSV1716gfp; UVW, moi 0.05, 72 hrs
  effect on GFP expression during HSV1716gfp infection: no effect on GFP expression
HSV1716gfp; all cell lines tested, moi 0.5, 72 hrs
  effect on GFP expression during HSV1716gfp infection: little effect on GFP expression
Virttu cell panel
  number of cell lines tested with clear synergy signals / synergism with HSV1716: 8/10
Hep3B
  synergy/antagonism with HSV1716 on cell death (Chou-Talalay): synergistically
HuH7
  synergy/antagonism with HSV1716 on cell death (Chou-Talalay): synergistically
HepG2-luc
  synergy/antagonism with HSV1716 on cell death (Chou-Talalay): synergistically
CP70
  synergy/antagonism with HSV1716 on cell death (Chou-Talalay): synergies occurred
Ovcar3 [10]
  synergy/antagonism with HSV1716 on cell death (Chou-Talalay): synergies occurred
UVW
  synergy/antagonism with HSV1716 on cell death (Chou-Talalay): no synergies
One58
  synergy/antagonism with HSV1716 on cell death (Chou-Talalay): no synergies
HCC cell lines
  synergy with HSV1716 on cell death (Chou-Talalay): strongly synergistic
HCC
  prolongation of median survival and time to progression: ~3 months
  reduction of the risk of death during year 1: 31%

— patent US20150374767A1, “Treatment of Cancer” (priority 2013, published 2015)
